Usually melting point stands for the temperature of the solid-liquid transition. In turn, `Fc1cccc(Cl)c1-c1cc(-c2ccc(Cl)cc2)nc2ncnn12` [Example 17, 7-(2-Chloro-6-fluorophenyl)-5-(4-chlorophenyl)-[1,2,4]triazolo[1,5-a]pyrimidine] returned a melting point of 238 to 239 °C.

These data come from patent publication US9533990B2, “Inhibitors of secretion of hepatitis B virus antigens” (priority 2010, dated 2017).
